According to patent US8569295B2, “Bicyclic urea compounds” (Merck Patent GmbH, priority 2009, dated 2013):

Molecular target: T1, GST-Aurora A (Homo sapiens, UniProt O14965)
T1 construct: N-terminal GST fusion with full length Aurora A (1-403 amino acids); purchased Carna Biosciences 05-101
T1 sequence (O14965 1-403): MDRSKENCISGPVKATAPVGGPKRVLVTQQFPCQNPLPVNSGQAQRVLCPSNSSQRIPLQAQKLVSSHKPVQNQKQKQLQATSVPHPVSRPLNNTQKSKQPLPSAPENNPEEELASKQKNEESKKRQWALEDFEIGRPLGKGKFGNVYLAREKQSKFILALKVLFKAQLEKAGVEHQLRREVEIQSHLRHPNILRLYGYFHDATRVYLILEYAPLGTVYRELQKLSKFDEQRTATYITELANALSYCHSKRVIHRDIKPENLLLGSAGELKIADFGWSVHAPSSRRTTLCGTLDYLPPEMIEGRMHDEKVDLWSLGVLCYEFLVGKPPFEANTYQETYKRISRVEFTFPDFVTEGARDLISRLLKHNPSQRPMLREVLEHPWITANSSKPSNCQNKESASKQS
Experiment: Aurora A kinase biochemical mobility shift assay (Caliper LC3000 / Desktop Profiler)
Conditions: AK A (Aurora kinase A) inhibition
Method: The Aurora assays described here are performed on two Caliper Life Sciences systems: the LC3000 and the Desktop Profiler. The RON kinase assays are performed on the Desktop Profiler only. These provide data on enzyme activity via measurement of the relative amounts of phosphorylated or unphosphorylated fluorescently labelled substrate peptide at the end of an enzymatic reaction. These different states of peptide are resolved by applying a potential difference across the sample. The presence of the charged phosphate group on the product (as opposed to the substrate) causes a different peptide mobility between the two peptides. This is visualized by excitation of the fluorescent label on the substrate and product peptides and represented as peaks within the analysis software.
In order to measure inhibitor activity of Aurora A inhibitors in the Caliper Life Sciences LC3000, a TTP Mosquito liquid handling instrument is used to place 0.25 ul of the appropriate concentration of inhibitor in 100% DMSO (for a dose response curve calculation) into each well of a 384-well plate. To this reaction components are added to a final volume of 25 ul: • 0.067 ng/ul GST-Aurora A (Carna Biosciences 05-101. N-terminal GST fusion with full length Aurora A (1-403 amino acids), accession number NP_940835.1). • 15 uM ATP (Fluka, 02055) • 1 mM DTT (Sigma, D0632) • 1 mM MgCl2 (Sigma, M1028) • 1 uM substrate peptide (sequence FITC-LRRASLG-(CONH2), synthesized by Tufts Peptide Synthesis service. • 100 mM HEPES pH 7.5 (Calbiochem, 391338) • 0.015% Brij-35 (Sigma, B4184)
The reaction is incubated for 90 min at 25 C, and then stopped by the addition of 70 ul of Stop buffer (100 mM HEPES pH 7.5, 0.015% Brij-35, 10 mM EDTA (Sigma, E7889)).
The plate is read on a Caliper LC3000 in an Off-Chip mobility shift assay format, using the following parameters for a 12-sipper chip: screening pressure −1.8 psi, upstream voltage −2700, downstream voltage −1000. These conditions cause unphosphorylated substrate and phosphorylated product peptide to resolve as separate peaks allowing direct measurement of percentage of conversion of substrate to product. The percent conversion can be plotted against concentration of inhibitor to produce a sigmoidal dose response curve, from which an IC50 can be calculated using XLFit for Microsoft Excel.
The Desktop Profiler utilizes the same priniciple as the LC3000 for calculating percentage conversion of a substrate to product. Caliper Life Sciences provides proprietary flash frozen pre-made 384 well plates containing selected kinases. Each column in the 384 well plate contains a particular selected kinase. A second plate, the ‘substrate plate’ contains a mix of fluorescently labeled peptide substrate and ATP. These are arranged in columns so that transfer for substrate plate to enzyme plate provides the correct enzyme with the correct substrate/ATP concentration. Compounds are added to a thawed enzyme plate in the desired format, in single concentrations. Reactions are initiated by transfer of the substrate/ATP mix from the substrate plate. The enzyme plate is incubated for 90 minutes at 25 C. The reaction is stopped by addition of 70 ul of Stop Buffer (100 mM HEPES pH 7.5, 0.015% Brij-35, 10 mM EDTA (Sigma, E7889)).
Reading of the plate in the Profiler is identical to the LC3000, and the ratio between substrate and product peaks provides the activity of the enzyme in that well. This is best represented by a plate heat map which colors each well by percent inhibition as compared to positive and negative controls (no inhibitors and no ATP respectively).

SMILES | IC50
COc1ccc(CN2Cc3c(Nc4ccc(NC(=O)c5cccc(F)c5)cc4F)ccnc3NC2=O)cc1 [Example 113, 3-fluoro-N-(3-fluoro-4-{[3-(4-methoxybenzyl)-2-oxo-1,2,3,4-tetrahydropyrido[2,3-d]pyrimidin-5-yl]amino}phenyl)benzamide] | 0.1 to 1 µM
O=C(CC1CC1)Nc1ccc(Nc2ccnc3c2CNC(=O)N3)cc1 [Example 108, 2-cyclopropyl-N-{4-[(2-oxo-1,2,3,4-tetrahydropyrido[2,3-d]pyrimidin-5-yl)amino]phenyl}acetamide] | 0.01 to 0.1 µM
CCN1Cc2c(Nc3ccc(NC(=O)c4ccccc4)cc3)ccnc2NC1=O [Example 35, N-(4-(3-ethyl-2-oxo-1,2,3,4-tetrahydropyrido [2,3-d]pyrimidin-5-ylamino)phenyl) benzamide] | 0.01 to 0.1 µM
O=C(Nc1ccc(Nc2ccnc3c2C2OCCN2C(=O)N3)cc1)c1ccc(F)cc1C(F)(F)F (centres unmarked) [Example 43, 4-fluoro-N-(4-(5-oxo-3,5,6,10b-tetrahydro-2H-oxazolo[3,2-c]pyrido [3,2-e]pyrimidin-10-ylamino)phenyl)-2-(trifluoromethyl) benzamide] | 0.1 to 1 µM
O=C(Nc1ccc(Nc2ccnc3c2CN(CC(F)(F)F)C(=O)N3)cc1)c1ccccc1 [Example 37, N-(4-(2-oxo-3-(2,2,2-trifluoroethyl)-1,2,3,4-tetrahydropyrido[2,3-d]pyrimidin-5-ylmino)phenyl)benzamide] | 0.01 to 0.1 µM
CN1Cc2c(Nc3ccc(NC(=O)CC(F)(F)F)cc3)ccnc2NC1=O [Example 24, 3,3,3-trifluoro-N-(4-(3-methyl-2-oxo-1,2,3,4-tetrahydropyrido [2,3-d]pyrimidin-5-ylamino)phenyl) propanamide] | 0.1 to 1 µM
O=C1NCc2c(Nc3ccc(NC(=O)c4ccccc4)cc3)ccnc2N1 [Example 4, N-(4-(2-oxo-1,2,3,4-tetrahydropyrido [2,3-d]pyrimidin-5-ylamino)phenyl)benzamide] | 0.01 to 0.1 µM
CN(C)CCN1Cc2c(Nc3ccc(NC(=O)c4ccc(F)cc4C(F)(F)F)cc3)ccnc2NC1=O [Example 11, N-(4-(3-(2-(dimethylamino)ethyl)-2-oxo-1,2,3,4-tetrahydropyrido [2,3-d]pyrimidin-5-ylamino)phenyl)-4-fluoro-2-(trifluoromethyl) benzamide] | 0.1 to 1 µM
O=C(Nc1ccc(Nc2ccnc3c2CN(CC(F)(F)F)C(=O)N3)c(F)c1)c1ccc(F)cc1C(F)(F)F [Example 40, 4-fluoro-N-(3-fluoro-4-(2-oxo-3-(2,2,2-trifluoroethyl)-1,2,3,4-tetrahydropyrido[2,3-d]pyrimidin-5-ylamino)phenyl)-2-(trifluoromethyl) benzamide] | < 0.01 µM
O=C(CC(F)(F)F)Nc1ccc(Nc2ccnc3c2CNC(=O)N3)cc1 [Example 107, 3,3,3-trifluoro-N-{4-[(2-oxo-1,2,3,4-tetrahydropyrido[2,3-d]pyrimidin-5-yl)amino]phenyl}propanamide] | 0.1 to 1 µM
O=C(Nc1ccc(Nc2ccnc3c2CN(CC(F)(F)F)C(=O)N3)cc1)c1ccc(F)cc1C(F)(F)F [Example 38, 4-fluoro-N-(4-(2-oxo-3-(2,2,2-trifluoroethyl)-1,2,3,4-tetrahydropyrido [2,3-d]pyrimidin-5-ylamino)phenyl)-2-(trifluoromethyl) benzamide] | 0.01 to 0.1 µM
CN1Cc2c(Nc3ccc(NC(=O)c4ccc(F)cc4C(F)(F)F)cc3F)ccnc2NC1=O [Example 28, 4-fluoro-N-(3-fluoro-4-(3-methyl-2-oxo-1,2,3,4-tetrahydropyrido [2,3-d]pyrimidin-5-ylamino)phenyl)-2-(trifluoromethyl) benzamide] | < 0.01 µM
CN1Cc2c(Nc3ccc(NC(=O)c4ccccc4)cc3)ccnc2NC1=O [Example 22, N-(4-(3-methyl-2-oxo-1,2,3,4-tetrahydropyrido [2,3-d]pyrimidin-5-ylamino)phenyl) benzamide] | 0.01 to 0.1 µM
O=C1NCc2c(Nc3ccc(NC(=O)c4ccccc4F)cc3F)ccnc2N1 [Example 118, 2-fluoro-N-{3-fluoro-4-[(2-oxo-1,2,3,4-tetrahydropyrido[2,3-d]pyrimidin-5-yl)amino]phenyl}benzamide] | 0.01 to 0.1 µM
